According to patent publication US20060069132A1, “Azolecarboxamide herbicides” (priority 2004, published 2006):

Assays:
pigweed = test: Test B pre-/postemergence herbicide test; format: in vivo, Amaranthus retroflexus
Outline: (§1)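 Plants compared with untreated controls 13–15 days post-treatment and given a visual 0–100 injury score. Applications: preemergence to seeds; postemergence at 1- to 4-leaf (2–18 cm); paddy species flooded, 2-leaf stage. Vehicle non-phytotoxic, surfactant included.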

barnyardgrass [1] = test: Test B flooded paddy test; format: in vivo, Echinochloa crus-galli; conditions: 1000 g ai/ha, scale 0 to 100 (0 no effect, 100 complete control)
Outline: (§2)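 Each value is a visual 0–100 response rating taken against controls 13 to 15 days after treatment in the greenhouse. Plants received formulated chemical postemergence at the 1- to 4-leaf stage or, in flooded paddy, at the 2-leaf stage.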

lambsquarters = test: Test B pre-/postemergence herbicide test; format: in vivo, Chenopodium album
Outline: as §1

corn = test: Test B pre-/postemergence herbicide test; format: in vivo, Zea mays
Outline: as §1

cocklebur = test: Test B pre-/postemergence herbicide test; format: in vivo, Xanthium strumarium
Outline: (§3)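 Evaluation is visual, comparing treated with control plants on a scale where 0 means no effect and 100 means full control. Treatments were preemergence, or postemergence on seedlings 2–18 cm tall, and held 13–15 days in the greenhouse.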

[2] = tested on: small flower umbrella sedge; test: Test B flooded paddy test; format: in vivo, Cyperus difformis; conditions: 1000 g ai/ha, scale 0 to 100 (0 no effect, 100 complete control)
Outline: as §2

wheat = test: Test B postemergence herbicide test; format: in vivo, Triticum aestivum; parameters: key to Wheat plant response rating: 0 = no effect, 100 = complete control
Outline: (§4)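 Scale 0–100: zero equals no visible effect, 100 complete control, judged by eye relative to controls. Timing: 13 to 15 days in greenhouse post-treatment. Growth stage at spraying: two leaves (paddy) or one to four leaves, 2–18 cm (postemergence).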

barnyardgrass [3] = test: Test B pre-/postemergence herbicide test; format: in vivo, Echinochloa crus-galli
Outline: as §3

morningglory = test: Test B pre-/postemergence herbicide test; format: in vivo, Ipomoea coccinea
Outline: as §3

large crabgrass = test: Test B pre-/postemergence herbicide test; format: in vivo, Digitaria sanguinalis
Outline: as §1

giant foxtail = test: Test B pre-/postemergence herbicide test; format: in vivo, Setaria faberi
Outline: as §1

rice = test: Test B flooded paddy test; format: in vivo, Oryza sativa; conditions: 1000 g ai/ha, scale 0 to 100 (0 no effect, 100 complete control)
Outline: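 Formulated test chemicals went onto postemergence plants measuring 2 to 18 cm, at one to four leaves. For the paddy assay, species had reached two leaves. Scoring took place 13–15 days later by eye, relative to untreated plants, using 0 for no effect up to 100 for full control.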

velvetleaf = test: Test B pre-/postemergence herbicide test; format: in vivo, Abutilon theophrasti
Outline: as §1

wild oat = test: Test B postemergence herbicide test; format: in vivo, Avena fatua
Outline: as §4

Surinam grass = test: Test B pre-/postemergence herbicide test; format: in vivo, Urochloa decumbens
Outline: as §1

[4] = 125 g ai/ha; 0 = no effect, 100 = complete control; preemergence
[5] = 500 g ai/ha; visual rating, 0 = no effect, 100 = complete control; preemergence
[6] = postemergence, 125 g ai/ha; visual rating, scale 0 (no effect) to 100 (complete control)
[7] = postemergence, 500 g ai/ha; scale 0 to 100, 0 is no effect, 100 is complete control
[8] = 125 g ai/ha; visual rating, scale 0 (no effect) to 100 (complete control); postemergence

C=CCN(C)C(=O)c1cccc(NC(=O)c2cc(C(C)(C)C)nn2CC)c1 [Compound 285]
Pigweed plant response rating (0 to 100 scale) (pigweed; [4]): 100
Plant response rating, Pigweed (pigweed; [5]): 100
Pigweed plant response rating (pigweed; [6]): 70
Pigweed plant response rating (pigweed; [7]): 80
Barnyardgrass plant response rating (barnyardgrass [1]): 90
Lambsquarters plant response rating (0 to 100 scale) (lambsquarters; [4]): 100
Plant response rating, Lambsquarters (lambsquarters; [5]): 100
Lambsquarters plant response rating (lambsquarters; [6]): 40
Lambsquarters plant response rating (lambsquarters; [7]): 70
Corn plant response rating (0 to 100 scale) (corn; [4]): 0
Plant response rating, Corn (corn; [5]): 40
Corn plant response rating (corn; [6]): 10
Corn plant response rating (corn; [7]): 10
Cocklebur plant response rating (0 to 100 scale) (cocklebur; [4]): 0
Plant response rating, Cocklebur (cocklebur; [5]): 0
Cocklebur plant response rating (cocklebur; [6]): 10
Cocklebur plant response rating (cocklebur; [7]): 30
Sedge, Umbrella plant response rating [2]: 90
Wheat plant response rating (wheat; [6]): 30
Wheat plant response rating (wheat; [7]): 40
Barnyardgrass plant response rating (0 to 100 scale) (barnyardgrass [3]; [4]): 30
Plant response rating, Barnyardgrass (barnyardgrass [3]; [5]): 90
Barnyardgrass plant response rating (barnyardgrass [3]; [6]): 0
Barnyardgrass plant response rating (barnyardgrass [3]; [7]): 10
Morningglory plant response rating (0 to 100 scale) (morningglory; [4]): 0
Plant response rating, Morningglory (morningglory; [5]): 10
Morningglory plant response rating (morningglory; [6]): 20
Morningglory plant response rating (morningglory; [7]): 30
Crabgrass, Large plant response rating (0 to 100 scale) (large crabgrass; [4]): 20
Plant response rating, Crabgrass, Large (large crabgrass; [5]): 70
Crabgrass, Large plant response rating (large crabgrass; [6]): 0
Crabgrass, Large plant response rating (large crabgrass; [7]): 20
Foxtail, Giant plant response rating (0 to 100 scale) (giant foxtail; [4]): 10
Plant response rating, Foxtail, Giant (giant foxtail; [5]): 80
Foxtail, Giant plant response rating (giant foxtail; [6]): 30
Foxtail, Giant plant response rating (giant foxtail; [7]): 50
Rice plant response rating (rice): 80
Velvetleaf plant response rating (0 to 100 scale) (velvetleaf; [4]): 30
Plant response rating, Velvetleaf (velvetleaf; [5]): 100
Velvetleaf plant response rating (velvetleaf; [6]): 10
Velvetleaf plant response rating (velvetleaf; [7]): 40
Oat, Wild plant response rating (wild oat; [6]): 40
Oat, Wild plant response rating (wild oat; [7]): 50
Surinam Grass plant response rating (0 to 100 scale) (Surinam grass; [4]): 10
Plant response rating, Surinam Grass (Surinam grass; [5]): 70
Surinam Grass plant response rating (Surinam grass; [6]): 10
Surinam Grass plant response rating (Surinam grass; [7]): 30

CCc1nn(C(C)(C)C)cc1C(=O)Nc1cc(C(=O)N(C)C)ccn1 [Compound 293]
Pigweed plant response rating (0 to 100 scale) (pigweed; [4]): 10
Pigweed plant response rating (pigweed; [8]): 10
Plant response rating, Pigweed (pigweed; [5]): 100
Pigweed plant response rating (pigweed; [7]): 40
Barnyardgrass plant response rating (barnyardgrass [1]): 90
Lambsquarters plant response rating (0 to 100 scale) (lambsquarters; [4]): 80
Lambsquarters plant response rating (lambsquarters; [8]): 50
Plant response rating, Lambsquarters (lambsquarters; [5]): 100
Lambsquarters plant response rating (lambsquarters; [7]): 70
Corn plant response rating (0 to 100 scale) (corn; [4]): 70
Corn plant response rating (corn; [8]): 10
Plant response rating, Corn (corn; [5]): 100
Corn plant response rating (corn; [7]): 30
Cocklebur plant response rating (0 to 100 scale) (cocklebur; [4]): 60
Cocklebur plant response rating (cocklebur; [8]): 20
Plant response rating, Cocklebur (cocklebur; [5]): 90
Cocklebur plant response rating (cocklebur; [7]): 30
Sedge, Umbrella plant response rating [2]: 80
Wheat plant response rating (wheat; [8]): 20
Wheat plant response rating (wheat; [7]): 30
Barnyardgrass plant response rating (0 to 100 scale) (barnyardgrass [3]; [4]): 90
Barnyardgrass plant response rating (barnyardgrass [3]; [8]): 0
Plant response rating, Barnyardgrass (barnyardgrass [3]; [5]): 100
Barnyardgrass plant response rating (barnyardgrass [3]; [7]): 10
Morningglory plant response rating (0 to 100 scale) (morningglory; [4]): 40
Morningglory plant response rating (morningglory; [8]): 30
Plant response rating, Morningglory (morningglory; [5]): 100
Morningglory plant response rating (morningglory; [7]): 70
Crabgrass, Large plant response rating (0 to 100 scale) (large crabgrass; [4]): 100
Crabgrass, Large plant response rating (large crabgrass; [8]): 0
Plant response rating, Crabgrass, Large (large crabgrass; [5]): 100
Crabgrass, Large plant response rating (large crabgrass; [7]): 20
Foxtail, Giant plant response rating (0 to 100 scale) (giant foxtail; [4]): 60
Foxtail, Giant plant response rating (giant foxtail; [8]): 20
Plant response rating, Foxtail, Giant (giant foxtail; [5]): 100
Foxtail, Giant plant response rating (giant foxtail; [7]): 30
Rice plant response rating (rice): 90
Velvetleaf plant response rating (velvetleaf; [8]): 10
Plant response rating, Velvetleaf (velvetleaf; [5]): 100
Velvetleaf plant response rating (velvetleaf; [7]): 30
Oat, Wild plant response rating (wild oat; [8]): 30
Oat, Wild plant response rating (wild oat; [7]): 50
Surinam Grass plant response rating (0 to 100 scale) (Surinam grass; [4]): 90
Surinam Grass plant response rating (Surinam grass; [8]): 10
Plant response rating, Surinam Grass (Surinam grass; [5]): 100
Surinam Grass plant response rating (Surinam grass; [7]): 20

CCn1nc(C(C)(C)C)cc1C(=O)Nc1cc(C(=S)N(C)C)ccc1F [Compound 294]
Pigweed plant response rating (0 to 100 scale) (pigweed; [4]): 100
Pigweed plant response rating (pigweed; [8]): 30
Plant response rating, Pigweed (pigweed; [5]): 100
Pigweed plant response rating (pigweed; [7]): 70
Barnyardgrass plant response rating (barnyardgrass [1]): 90
Lambsquarters plant response rating (0 to 100 scale) (lambsquarters; [4]): 100
Lambsquarters plant response rating (lambsquarters; [8]): 70
Plant response rating, Lambsquarters (lambsquarters; [5]): 100
Lambsquarters plant response rating (lambsquarters; [7]): 80
Corn plant response rating (0 to 100 scale) (corn; [4]): 80
Corn plant response rating (corn; [8]): 10
Plant response rating, Corn (corn; [5]): 100
Corn plant response rating (corn; [7]): 50
Cocklebur plant response rating (0 to 100 scale) (cocklebur; [4]): 90
Cocklebur plant response rating (cocklebur; [8]): 30
Plant response rating, Cocklebur (cocklebur; [5]): 100
Cocklebur plant response rating (cocklebur; [7]): 30
Sedge, Umbrella plant response rating [2]: 80
Wheat plant response rating (wheat; [8]): 30
Wheat plant response rating (wheat; [7]): 40
Barnyardgrass plant response rating (0 to 100 scale) (barnyardgrass [3]; [4]): 100
Barnyardgrass plant response rating (barnyardgrass [3]; [8]): 20
Plant response rating, Barnyardgrass (barnyardgrass [3]; [5]): 100
Barnyardgrass plant response rating (barnyardgrass [3]; [7]): 60
Morningglory plant response rating (0 to 100 scale) (morningglory; [4]): 0
Morningglory plant response rating (morningglory; [8]): 10
Plant response rating, Morningglory (morningglory; [5]): 20
Morningglory plant response rating (morningglory; [7]): 20
Crabgrass, Large plant response rating (0 to 100 scale) (large crabgrass; [4]): 100
Crabgrass, Large plant response rating (large crabgrass; [8]): 10
Plant response rating, Crabgrass, Large (large crabgrass; [5]): 100
Crabgrass, Large plant response rating (large crabgrass; [7]): 20
Foxtail, Giant plant response rating (0 to 100 scale) (giant foxtail; [4]): 90
Foxtail, Giant plant response rating (giant foxtail; [8]): 30
Plant response rating, Foxtail, Giant (giant foxtail; [5]): 100
Foxtail, Giant plant response rating (giant foxtail; [7]): 50
Rice plant response rating (rice): 90
Velvetleaf plant response rating (velvetleaf; [8]): 40
Plant response rating, Velvetleaf (velvetleaf; [5]): 100
Velvetleaf plant response rating (velvetleaf; [7]): 80
Oat, Wild plant response rating (wild oat; [8]): 40
Oat, Wild plant response rating (wild oat; [7]): 50
Surinam Grass plant response rating (0 to 100 scale) (Surinam grass; [4]): 100
Surinam Grass plant response rating (Surinam grass; [8]): 20
Plant response rating, Surinam Grass (Surinam grass; [5]): 100
Surinam Grass plant response rating (Surinam grass; [7]): 40

CCn1nc(C2(C)CC2)cc1C(=O)Nc1cc(C(=O)N(C)C)ccc1F [Compound 299]
Pigweed plant response rating (0 to 100 scale) (pigweed; [4]): 100
Pigweed plant response rating (pigweed; [8]): 90
Plant response rating, Pigweed (pigweed; [5]): 100
Pigweed plant response rating (pigweed; [7]): 100
Barnyardgrass plant response rating (barnyardgrass [1]): 90
Lambsquarters plant response rating (0 to 100 scale) (lambsquarters; [4]): 100
Lambsquarters plant response rating (lambsquarters; [8]): 40
Plant response rating, Lambsquarters (lambsquarters; [5]): 100
Lambsquarters plant response rating (lambsquarters; [7]): 100
Corn plant response rating (0 to 100 scale) (corn; [4]): 50
Corn plant response rating (corn; [8]): 0
Plant response rating, Corn (corn; [5]): 90
Corn plant response rating (corn; [7]): 20
Cocklebur plant response rating (0 to 100 scale) (cocklebur; [4]): 20
Cocklebur plant response rating (cocklebur; [8]): 20
Plant response rating, Cocklebur (cocklebur; [5]): 60
Cocklebur plant response rating (cocklebur; [7]): 70
Sedge, Umbrella plant response rating [2]: 90
Wheat plant response rating (wheat; [8]): 20
Wheat plant response rating (wheat; [7]): 30
Barnyardgrass plant response rating (0 to 100 scale) (barnyardgrass [3]; [4]): 90
Barnyardgrass plant response rating (barnyardgrass [3]; [8]): 10
Plant response rating, Barnyardgrass (barnyardgrass [3]; [5]): 100
Barnyardgrass plant response rating (barnyardgrass [3]; [7]): 90
Morningglory plant response rating (0 to 100 scale) (morningglory; [4]): 40
Morningglory plant response rating (morningglory; [8]): 70
Plant response rating, Morningglory (morningglory; [5]): 100
Morningglory plant response rating (morningglory; [7]): 80
Crabgrass, Large plant response rating (0 to 100 scale) (large crabgrass; [4]): 100
Crabgrass, Large plant response rating (large crabgrass; [8]): 10
Plant response rating, Crabgrass, Large (large crabgrass; [5]): 100
Crabgrass, Large plant response rating (large crabgrass; [7]): 90
Foxtail, Giant plant response rating (0 to 100 scale) (giant foxtail; [4]): 100
Foxtail, Giant plant response rating (giant foxtail; [8]): 10
Plant response rating, Foxtail, Giant (giant foxtail; [5]): 100
Foxtail, Giant plant response rating (giant foxtail; [7]): 80
Rice plant response rating (rice): 90
Velvetleaf plant response rating (velvetleaf; [8]): 60
Plant response rating, Velvetleaf (velvetleaf; [5]): 100
Velvetleaf plant response rating (velvetleaf; [7]): 100
Oat, Wild plant response rating (wild oat; [8]): 20
Oat, Wild plant response rating (wild oat; [7]): 40
Surinam Grass plant response rating (0 to 100 scale) (Surinam grass; [4]): 100
Surinam Grass plant response rating (Surinam grass; [8]): 20
Plant response rating, Surinam Grass (Surinam grass; [5]): 100
Surinam Grass plant response rating (Surinam grass; [7]): 80
